Test system: 1A9 ovarian cancer cells
Experiment: Anti-proliferative activity in 1A9 ovarian cancer cells
Format: cell-based
Details: for Antiproliferative activity (in words): antiproliferative assays, highest concentration tested 50 μM

Compound	Fold more active than epi-tubulysin V in the antiproliferative assays (antiproliferative assays (1A9 and MCF-7), relative to epi-tubulysin V)	Antiproliferative activity (in words)
CC[C@H](C)[C@H](NC(=O)[C@H]1CCCCN1C)C(=O)N[C@H](C[C@@H](O)c1nc(C(=O)N[C@@H](Cc2ccccc2)C[C@H](C)C(=O)O)cs1)C(C)C [Compound 4, tubulysin V]	30–45 fold	–
CC[C@H](C)[C@H](NC(=O)[C@@H](C)N(C)C)C(=O)N[C@H](CC(=O)c1nc(C(=O)N[C@@H](Cc2ccccc2)C[C@H](C)C(=O)O)cs1)C(C)C [Compound 21]	–	not active
CC[C@H](C)[C@H](NC(=O)[C@@H](C)N(C)C)C(=O)N[C@H](CC(=O)c1nc(C(=O)N[C@H](CCC(=O)O)Cc2ccccc2)cs1)C(C)C [Compound 22]	–	sub-micromolar activity

— PMC4183140 (Journal of medicinal chemistry, 2009)
